According to ChEMBL document CHEMBL3045792, “Synthesis, antimicrobial activity, and molecular modeling of novel 4-(3-(4-benzylpiperazin-1-yl)propoxy)-7-methoxy-3-substituted phenyl-2H-chromen-2-one” (2013):
The source made the active and inactive calls. The calls are words filed in the database; no cut-off is given here.

Tests used:
Format in all cases: functional
Exserohilum rostratum [1] = assay: Antifungal activity against Setosphaeria rostrata assessed as growth inhibition at 900 ug/ml; settings: read-out: IZ
Staphylococcus aureus [2] = assay: Antibacterial activity against Staphylococcus aureus assessed as growth inhibition at 600 ug/ml by NCCLS […] method; settings: read-out: IZ
Fusarium oxysporum [3] = assay: Antifungal activity against Fusarium oxysporum assessed as growth inhibition at 600 ug/ml; settings: read-out: IZ
Bacillus subtilis [4] = assay: Antibacterial activity against Bacillus subtilis assessed as growth inhibition at 600 ug/ml by NCCLS […] method; settings: read-out: IZ
Klebsiella aerogenes [5] = assay: Antibacterial activity against Enterobacter aerogenes assessed as growth inhibition at 600 ug/ml by NCCLS […] method; settings: read-out: IZ
Proteus mirabilis [6] = assay: Antibacterial activity against Proteus mirabilis assessed as growth inhibition at 900 ug/ml by NCCLS […] method; settings: read-out: IZ
Fusarium oxysporum [7] = assay: Antifungal activity against Fusarium oxysporum assessed as growth inhibition at 900 ug/ml; settings: read-out: IZ
Colletotrichum falcatum [8] = assay: Antifungal activity against Glomerella tucumanensis assessed as growth inhibition at 600 ug/ml; settings: read-out: IZ
Klebsiella pneumoniae [9] = assay: Antibacterial activity against Klebsiella pneumoniae assessed as growth inhibition at 600 ug/ml by NCCLS […] method; settings: read-out: IZ
Streptococcus pyogenes [10] = assay: Antibacterial activity against Streptococcus pyogenes assessed as growth inhibition at 600 ug/ml by NCCLS […] method; settings: read-out: IZ
Proteus vulgaris [11] = assay: Antibacterial activity against Proteus vulgaris assessed as growth inhibition at 600 ug/ml by NCCLS […] method; settings: read-out: IZ
Fusarium oxysporum [12] = assay: Antifungal activity against Fusarium oxysporum assessed as growth inhibition at 1200 ug/ml; settings: read-out: IZ
Candida albicans [13] = assay: Antifungal activity against Candida albicans assessed as growth inhibition at 600 ug/ml
Priestia megaterium [14] = assay: Antibacterial activity against Bacillus megaterium assessed as growth inhibition at 600 ug/ml by NCCLS […] method; settings: read-out: IZ
Candida albicans [15] = assay: Antifungal activity against Candida albicans assessed as growth inhibition at 300 ug/ml
Escherichia coli [16] = assay: Antibacterial activity against Escherichia coli assessed as growth inhibition at 600 ug/ml by NCCLS […] method; settings: read-out: IZ
Bacillus pumilus [17] = assay: Antibacterial activity against Bacillus pumilus assessed as growth inhibition at 900 ug/ml by NCCLS […] method; settings: read-out: IZ
Fusarium oxysporum [18] = assay: Antifungal activity against Fusarium oxysporum assessed as growth inhibition at 300 ug/ml; settings: read-out: IZ
Colletotrichum falcatum [19] = assay: Antifungal activity against Glomerella tucumanensis assessed as growth inhibition at 1200 ug/ml; settings: read-out: IZ
Proteus vulgaris [20] = assay: Antibacterial activity against Proteus vulgaris assessed as growth inhibition at 900 ug/ml by NCCLS […] method; settings: read-out: IZ
Proteus mirabilis [21] = assay: Antibacterial activity against Proteus mirabilis assessed as growth inhibition at 600 ug/ml by NCCLS […] method; settings: read-out: IZ
Exserohilum rostratum [22] = assay: Antifungal activity against Setosphaeria rostrata assessed as growth inhibition at 300 ug/ml; settings: read-out: IZ
Colletotrichum falcatum [23] = assay: Antifungal activity against Glomerella tucumanensis assessed as growth inhibition at 300 ug/ml; settings: read-out: IZ
Staphylococcus aureus [24] = assay: Antibacterial activity against Staphylococcus aureus assessed as growth inhibition at 900 ug/ml by NCCLS […] method; settings: read-out: IZ
Escherichia coli [25] = assay: Antibacterial activity against Escherichia coli assessed as growth inhibition at 900 ug/ml by NCCLS […] method; settings: read-out: IZ
Priestia megaterium [26] = assay: Antibacterial activity against Bacillus megaterium assessed as growth inhibition at 900 ug/ml by NCCLS […] method; settings: read-out: IZ
Klebsiella pneumoniae [27] = assay: Antibacterial activity against Klebsiella pneumoniae assessed as growth inhibition at 900 ug/ml by NCCLS […] method; settings: read-out: IZ
Colletotrichum falcatum [28] = assay: Antifungal activity against Glomerella tucumanensis assessed as growth inhibition at 900 ug/ml; settings: read-out: IZ
Klebsiella aerogenes [29] = assay: Antibacterial activity against Enterobacter aerogenes assessed as growth inhibition at 900 ug/ml by NCCLS […] method; settings: read-out: IZ
Exserohilum rostratum [30] = assay: Antifungal activity against Setosphaeria rostrata assessed as growth inhibition at 1200 ug/ml; settings: read-out: IZ
Candida albicans [31] = assay: Antifungal activity against Candida albicans assessed as growth inhibition at 900 ug/ml
Streptococcus pyogenes [32] = assay: Antibacterial activity against Streptococcus pyogenes assessed as growth inhibition at 900 ug/ml by NCCLS […] method; settings: read-out: IZ
Bacillus subtilis [33] = assay: Antibacterial activity against Bacillus subtilis assessed as growth inhibition at 900 ug/ml by NCCLS […] method; settings: read-out: IZ
Candida albicans [34] = assay: Antifungal activity against Candida albicans assessed as growth inhibition at 1200 ug/ml
Bacillus pumilus [35] = assay: Antibacterial activity against Bacillus pumilus assessed as growth inhibition at 600 ug/ml by NCCLS […] method; settings: read-out: IZ
Exserohilum rostratum [36] = assay: Antifungal activity against Setosphaeria rostrata assessed as growth inhibition at 600 ug/ml; settings: read-out: IZ

`CCCOc1ccc(CN2CCN(CCCOc3c(-c4ccccc4)c(=O)oc4cc(OC)ccc34)CC2)cc1` gave a zone of inhibition at 900 µg/mL (Exserohilum rostratum [1]) of 14.6 mm, a zone of inhibition at 600 µg/mL (Staphylococcus aureus [2]) of 1.55 mm and a zone of inhibition at 600 µg/mL (Fusarium oxysporum [3]) of 4.92 mm. The zone of inhibition at 600 µg/mL (Bacillus subtilis [4]) was 2.5 mm, the zone of inhibition at 600 µg/mL (Klebsiella aerogenes [5]) was 2 mm and the zone of inhibition at 900 µg/mL (Proteus mirabilis [6]) was 2.48 mm. The zone of inhibition at 900 µg/mL (Fusarium oxysporum [7]) was 12.1 mm, the zone of inhibition at 600 µg/mL (Colletotrichum falcatum [8]) was 7.6 mm and the zone of inhibition at 600 µg/mL (Klebsiella pneumoniae [9]) was 2.04 mm. It also gave a zone of inhibition at 600 µg/mL (Streptococcus pyogenes [10]) of 3.25 mm, a zone of inhibition at 600 µg/mL (Proteus vulgaris [11]) of 4.2 mm and a zone of inhibition at 1200 µg/mL (Fusarium oxysporum [12]) of 19.8 mm. For the same compound, the “growth inhibition (GI)” value (Candida albicans [13]) was “inactive”, the zone of inhibition at 600 µg/mL (Priestia megaterium [14]) was 4.2 mm and the “growth inhibition (GI)” value (Candida albicans [15]) was “inactive”. The zone of inhibition at 600 µg/mL (Escherichia coli [16]) was 1.25 mm, the zone of inhibition at 900 µg/mL (Bacillus pumilus [17]) was 6.8 mm and the zone of inhibition at 300 µg/mL (Fusarium oxysporum [18]) was 2.48 mm. It also gave a zone of inhibition at 1200 µg/mL (Colletotrichum falcatum [19]) of 32.5 mm, a zone of inhibition at 900 µg/mL (Proteus vulgaris [20]) of 8.09 mm and a zone of inhibition at 600 µg/mL (Proteus mirabilis [21]) of 1.02 mm. The zone of inhibition at 300 µg/mL (Exserohilum rostratum [22]) was 3.25 mm, the zone of inhibition at 300 µg/mL (Colletotrichum falcatum [23]) was 4.49 mm and the zone of inhibition at 900 µg/mL (Staphylococcus aureus [24]) was 3.25 mm. For the same compound, the zone of inhibition at 900 µg/mL (Escherichia coli [25]) was 3.49 mm, the zone of inhibition at 900 µg/mL (Priestia megaterium [26]) was 8.4 mm and the zone of inhibition at 900 µg/mL (Klebsiella pneumoniae [27]) was 4.25 mm. The zone of inhibition at 900 µg/mL (Colletotrichum falcatum [28]) was 16.8 mm, the zone of inhibition at 900 µg/mL (Klebsiella aerogenes [29]) was 4.02 mm and the zone of inhibition at 1200 µg/mL (Exserohilum rostratum [30]) was 28.6 mm. The “growth inhibition (GI)” value (Candida albicans [31]) was “inactive”, the zone of inhibition at 900 µg/mL (Streptococcus pyogenes [32]) was 6.84 mm and the zone of inhibition at 900 µg/mL (Bacillus subtilis [33]) was 4.25 mm. For the same compound, the “growth inhibition (GI)” value (Candida albicans [34]) was “inactive”, the zone of inhibition at 600 µg/mL (Bacillus pumilus [35]) was 3.2 mm and the zone of inhibition at 600 µg/mL (Exserohilum rostratum [36]) was 6.02 mm.
